Test results as given in paper PMC9120487, “Cryo-EM structures define ubiquinone-10 binding to mitochondrial complex I and conformational transitions accompanying Q-site occupancy” (Nature Communications, 2022).

What was measured:
[1] = biological target: T1, bovine mitochondrial complex I (CxI-ND) (Bos taurus, UniProt P03887+P03898+P17694+P42026); test: cryo-EM structure, […] Å; details: oxidised resting enzyme in nanodiscs, active state; Q-binding channel between NDUFS2, NDUFS7 and ND1; pH 7.5
T1 construct: gene NDUFS2; native 45-subunit complex (14 core, 31 supernumerary); NDUFS2 residue 129 modelled as Arg, NDUFA10 residue 255 as Lys; human subunit nomenclature; with NADH dehydrogenase [ubiquinone] flavoprotein 1, mitochondrial; NADH dehydrogenase [ubiquinone] flavoprotein 2, mitochondrial; NADH-ubiquinone oxidoreductase 75 kDa subunit, mitochondrial; NADH dehydrogenase [ubiquinone] iron-sulfur protein 3, mitochondrial; NADH dehydrogenase [ubiquinone] iron-sulfur protein 8, mitochondrial; NADH-ubiquinone oxidoreductase chain 2; NADH-ubiquinone oxidoreductase chain 3; NADH-ubiquinone oxidoreductase chain 4; NADH-ubiquinone oxidoreductase chain 4L; NADH-ubiquinone oxidoreductase chain 5; NADH-ubiquinone oxidoreductase chain 6

[2] = biological target: T1, bovine mitochondrial complex I (CxI-ND); test: NADH:dQ oxidoreductase activity, […]-380 nm; format: biochemical; details: DDM-solubilised enzyme; 200 µM dQ, 200 µM NADH, 0.15% asolectin/CHAPS; pH 7.5, 32 °C; piericidin-sensitive rate

| Structure (SMILES) | cryo-EM structure, 2.84 Å [1] | NADH:dQ oxidoreductase activity, 340-380 nm [2] |
| --- | --- | --- |
| COC1=C(OC)C(=O)C(C/C=C(\C)CC/C=C(\C)CC/C=C(\C)CC/C=C(\C)CC/C=C(\C)CC/C=C(\C)CC/C=C(\C)CC/C=C(\C)CC/C=C(\C)CCC=C(C)C)=C(C)C1=O [Q10, ubiquinone-10] | In active-Q10, the Q10 density occupies the entirety of the channel | – |
| CCCCCCCCCCC1=C(C)C(=O)C(OC)=C(OC)C1=O [dQ, decylubiquinone] | – | piericidin-sensitive NADH:dQ oxidoreductase activity of the DDM-solubilised enzyme before reconstitution |
